Molecules are shown by their SMILES. Structures can show the parent of a compound that is named as a salt.

Consider 18 molecules from patent publication US20240366598A1, “GLUCOSE-DEPENDENT INSULINOTROPIC POLYPEPTIDE RECEPTOR ANTAGONISTS AND USES THEREOF” (Pfizer Inc., priority 2023, published 2024).

The assay deals with T1, human Glucose-dependent Insulinotropic Polypeptide Receptor (hGIPR) (Homo sapiens, UniProt P48546).
T1 sequence (P48546 22-466): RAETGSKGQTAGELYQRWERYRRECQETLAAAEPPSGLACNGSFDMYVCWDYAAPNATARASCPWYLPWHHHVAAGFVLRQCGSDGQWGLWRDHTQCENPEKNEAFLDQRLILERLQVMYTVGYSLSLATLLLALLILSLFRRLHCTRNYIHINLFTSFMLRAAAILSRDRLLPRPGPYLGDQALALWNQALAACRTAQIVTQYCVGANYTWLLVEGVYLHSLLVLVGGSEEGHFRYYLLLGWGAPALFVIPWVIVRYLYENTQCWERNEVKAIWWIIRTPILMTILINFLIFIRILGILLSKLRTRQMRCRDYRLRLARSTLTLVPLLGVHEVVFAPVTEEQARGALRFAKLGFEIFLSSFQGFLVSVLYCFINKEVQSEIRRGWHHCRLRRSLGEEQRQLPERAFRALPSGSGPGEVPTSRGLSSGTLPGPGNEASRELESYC
Description: Functional in vitro GIPR antagonist potency assay (cAMP HTRF, CHO-K1 cells stably expressing hGIPR, hGIP stimulation at about EC80). In kind it is cell-based. As to conditions: geometric mean, hGIP at estimated EC80, examples marked ^2: overall geometric mean of multiple forms (including salts) tested. The method in brief:
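HTRF quantification of cAMP after stimulation with hGIP at an estimated EC80 for 30 min at 37 °C. Before stimulation, hGIPR-expressing CHO-K1 cells were exposed 2 h to test compound in IBMX-containing buffer, with 0.5% DMSO final. Percent effect is referenced to agonist alone (0%) and to 80 μM of a reference antagonist (100%), and runs required the agonist concentration to fall within the on-the-day EC50–EC90.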
As to `O=C(O)c1ccc(-c2ccc(NC(=O)[C@H]3CCCN3C(=O)Nc3ccc(C(F)(F)F)cc3)cc2)cc1F` [Example 204, 3-fluoro-4′-[(1-{[4-(trifluoromethyl)phenyl]carbamoyl}-D-prolyl)amino][1,1′-biphenyl]-4-carboxylic acid], the IC50 (in general, the concentration that gives 50% inhibition) was 14 nM.
Turning to `Cc1nc(C(=O)O)ccc1-c1ccc(NC(=O)[C@H]2CCCN2C(=O)NCc2ccc(C(C)C)cc2)cc1` [Example 205, 6-methyl-5-(4-{[1-({[4-(propan-2-yl)phenyl]methyl}carbamoyl)-D-prolyl]amino}phenyl)pyridine-2-carboxylic acid], the IC50 is 14 nM.
As to `Cc1nc(C(=O)O)ccc1-c1ccc(NC(=O)[C@H]2CCCN2C(=O)NCc2ccc(C(F)(F)F)cc2)cc1` [Example 206, 6-methyl-5-(4-{[1-{{[4-(trifluoromethyl)phenyl]methyl}carbamoyl)-D-prolyl]amino}phenyl)pyridine-2-carboxylic acid], the IC50 is 14 nM.
For the molecule `CC(C)c1ccc(NC(=O)N2CCC[C@@H]2C(=O)Nc2ccc(-c3ccc(C(=O)O)cc3)cn2)cc1F` [Example 207, 4-{6-[(1-{[3-fluoro-4-(propan-2-yl)phenyl]carbamoyl}-D-prolyl)amino]pyridin-3-yl}benzoic acid], the IC50 is 1.3 nM.
In the case of `CC(C)c1ccc(NC(=O)N2CCC[C@@H]2C(=O)Nc2ccc(-c3ccc(C(=O)O)nc3)cc2)cc1F` [Example 208, 5-{4-[(1-{[3-fluoro-4-(propan-2-yl)phenyl]carbamoyl}-D-prolyl)amino]phenyl}pyridine-2-carboxylic acid], the IC50 was 4.9 nM.
As for `Cc1cc(-c2ccc(NC(=O)[C@H]3CCCN3C(=O)Nc3ccc(C(F)(F)F)cc3)cc2)ccc1C(=O)O` [Example 209, 3-methyl-4′-[(1-{[4-(trifluoromethyl)phenyl]carbamoyl}-D-prolyl)amino][1,1′-biphenyl]-4-carboxylic acid], the IC50 is 7.4 nM.
Take `O=C(O)c1ccc(-c2ccc(NC(=O)[C@H]3CCCN3C(=O)Nc3ccc(C4CCC4)cc3)nc2)cc1` [Example 210, 4-[6-({1-[(4-cyclobutylphenyl)carbamoyl]-D-prolyl}amino)pyridin-3-yl]benzoic acid]: the IC50 was 9.3 nM.
In the case of `O=C(O)c1ccc(-c2ccc(NC(=O)[C@H]3CCCN3C(=O)Nc3ccc(C4CCC4)cc3)cc2)cn1` [Example 211, 5-[4-({1-[(4-cyclobutylphenyl)carbamoyl]-D-prolyl}amino)phenyl]pyridine-2-carboxylic acid], the IC50 is 7 nM.
Turning to `Cc1ccc(CNC(=O)N2CCC[C@@H]2C(=O)Nc2ccc(-c3ccc(C(=O)O)nc3C)cc2)cc1F` [Example 212, 5-{4-[(1-{[(3-fluoro-4-methylphenyl)methyl]carbamoyl}-D-prolyl)amino]phenyl}-6-methylpyridine-2-carboxylic acid], the IC50 was 18 nM.
With `Cc1nc(C(=O)O)ccc1-c1ccc(NC(=O)[C@H]2CCCN2C(=O)Nc2cnc(C(C)C)c(F)c2)cc1` [Example 213, 5-{4-[(1-{[5-fluoro-6-(propan-2-yl)pyridin-3-yl]carbamoyl}-D-prolyl)amino]phenyl}-6-methylpyridine-2-carboxylic acid] the figure was 90 nM; with `CC(C)c1ccc(NC(=O)N2CCC[C@@H]2C(=O)Nc2ccc(-c3ccc(C(=O)O)c(F)c3)cc2)cc1F` [Example 214, 3-fluoro-4′-[(1-{[3-fluoro-4-(propan-2-yl)phenyl]carbamoyl}-D-prolyl)amino][1,1′-biphenyl]-4-carboxylic acid], 6.7 nM; with `O=C(O)c1ccc(-c2ccc(NC(=O)[C@H]3CCCN3C(=O)Nc3ccc(C(F)(F)F)c(F)c3)cn2)cc1` [Example 215, 4-{5-[(1-{[3-fluoro-4-(trifluoromethyl)phenyl]carbamoyl}-D-prolyl)amino]pyridin-2-yl}benzoic acid], 15 nM.
On to `Cc1cc(NC(=O)N2CCC[C@@H]2C(=O)Nc2ccc(-c3ccc(C(=O)O)nc3C)cc2)ncc1C(C)C` [Example 216, 6-methyl-5-{4-[(1-{[4-methyl-5-(propan-2-yl)pyridin-2-yl]carbamoyl}-D-prolyl)amino]phenyl}pyridine-2-carboxylic acid, trifluoroacetate salt], for which the IC50 is 65 nM.
Regarding `Cc1cc(NC(=O)[C@H]2CCCN2C(=O)Nc2ccc(C(C)C)c(F)c2)ccc1-c1ccc(C(=O)O)cc1` [Example 219, 4′-[(1-{[3-fluoro-4-(propan-2-yl)phenyl]carbamoyl}-D-prolyl)amino]-2′-methyl[1,1′-biphenyl]-4-carboxylic acid], the IC50 was 2.9 nM.
Consider `Cc1cc(NC(=O)N2CCC[C@@H]2C(=O)Nc2ccc(-c3ccc(C(=O)O)cc3)nc2)ncc1C(F)(F)F` [Example 222, 4-{5-[(1-{[4-methyl-5-(trifluoromethyl)pyridin-2-yl]carbamoyl}-D-prolyl)amino]pyridin-2-yl}benzoic acid], for which the IC50 was 100 nM.
For `O=C(O)c1cccc(-c2ccc(NC(=O)[C@H]3CCCN3C(=O)NCc3ccc(C(F)(F)F)c(F)c3)nc2)c1` [Example 223, 3-(6-{[1-({[3-fluoro-4-(trifluoromethyl)phenyl]methyl}carbamoyl)-D-prolyl]amino}pyridin-3-yl)benzoic acid], the IC50 is 51 nM.
For the molecule `CC(C)c1ccc(CNC(=O)N2CCC[C@@H]2C(=O)Nc2ccc(-c3cccc(C(=O)O)c3)cn2)cc1` [Example 224, 3-(6-{[1-{{[4-(propan-2-yl)phenyl]methyl}carbamoyl)-D-prolyl]amino}pyridin-3-yl) benzoic acid], the IC50 was 79 nM.
With `O=C(O)c1cccc(-c2ccc(NC(=O)[C@H]3CCCN3C(=O)NCc3ccc(C(F)(F)F)cc3)nc2)c1` [Example 225, 3-(6-{[1-({[4-(trifluoromethyl)phenyl]methyl}carbamoyl)-D-prolyl]amino}pyridin-3-yl)benzoic acid] the figure was 51 nM.
